Legend:
Assay type in all cases: physicochemical
[1] = Slow evaporative crystallisation trials (solubility observed in solvents)
Procedure: Into crystallisation tubes (5 ml vol) was charged 20 mg of amorphous (S)—N-(1-deutero-1-(3-chloro-5-fluoro-2-((2-methyl-4-(1-methyl-1H-1,2,4-triazol-5-yl)quinolin-8-yloxy)methyl)phenyl)ethyl)-2-(difluoromethoxy)acetamide. A total of 26 solvents or solvent mixtures were charged to the tubes and the solids agitated over a period of 48 hours at RT and cooled to 0° C.
Slow evaporative crystallisation trials were continued by transferring samples to smaller tapered tubes without agitation and needle bleeds fitted. Slow evaporative crystallisation was attempted with scratching at various points to help induce crystallisation.
Following two weeks, liquors remained in most cases with no evidence of crystallisation. At this point heteronuclear seeding was attempted with a very similar crystalline API source. This had no impact upon the results. The majority of test cases returned clear glasses.

[2] = Mixed solvent cooling crystallization trials (solubility in six solvents); details: 200 mg amorphous material; MeOH, MeCN, MEK, THF, EtOAc, TBME; solutions at 0.5 vol., 25° C., ca. 66 hours equilibration
Procedure: Amorphous (S)—N-(1-deutero-1-(3-chloro-5-fluoro-2-((2-methyl-4-(1-methyl-1H-1,2,4-triazol-5-yl)quinolin-8-yloxy)methyl)phenyl)ethyl)-2-(difluoromethoxy)acetamide, 6×200 mg, was weighed into crystallisation tubes and charged with solvents (MeOH, MeCN, MEK, THE, EtOAc and TBME) in 0.05 ml (0.25 vol.) aliquots at 25° C. […] Additional solvent (made up to 0.5 vol.) yielded thick yellow solutions. The solutions were equilibrated at 25° C. for ca. 66 hours though this had no impact on the yellow solutions.
Additional solvent was charged to each API solution up to 1 ml (5 vol.) and the solutions were heated to 40° C. and clarified. Heptane was charged in 50 μL aliquots to each solution before cooling to 25° C. over 1 hour. The volume charged and observations at 40 and 25° C. are detailed in Table 3.

[3] = Gravimetric Vapour Sorption (GVS); details: 25° C.
Procedure: Sorption isotherms were obtained using a Hiden Isochema moisture sorption analyser (model IGAsorp), controlled by IGAsorp Systems Software V6.50.48. The sample was maintained at a constant temperature (25° C.) by the instrument controls. The humidity was controlled by mixing streams of dry and wet nitrogen, with a total flow of 250 ml.min^−1. The instrument was verified for relative humidity content by measuring three calibrated Rotronic salt solutions (10-50-88%). The weight change of the sample was monitored as a function of humidity by a microbalance (accuracy+/−0.005 mg). A defined amount of sample was placed in a tared mesh stainless steel basket under ambient conditions. A full experimental cycle typically consisted of three scans (sorption, desorption and sorption) at a constant temperature (25° C.) and 10% RH intervals over a 0-90% range (60 minutes for each humidity level).

solubility in solvents ([1]; 20 mg amorphous material, 26 solvents or solvent mixtures, agitated 48 hours at RT and cooled to 0° C., in the majority of solvents)	solubility in solvents (continued trials) ([1]; continued slow evaporation without agitation, scratching, heteronuclear seeding, 3 weeks)	solubility in the 6 solvents investigated [2]	GVS overall weight change ([3]; between 0 and 90% RH)	GVS hysteresis ([3]; between 10 and 80% RH)	Structure (SMILES)
extreme solubility	extreme solubility	high solubility	–	–	[2H][C@@](C)(NC(=O)COC(F)F)c1cc(F)cc(Cl)c1COc1cccc2c(-c3ncnn3C)cc(C)nc12 [(S)—N-(1-deutero-1-(3-chloro-5-fluoro-2-((2-methyl-4-(1-methyl-1H-1,2,4-triazol-5-yl)quinolin-8-yloxy)methyl)phenyl)ethyl)-2-(difluoromethoxy)acetamide]
–	–	–	ca. 1.9 wt %	0.2-0.4 wt %	[2H][C@@](C)(NC(=O)COC(F)F)c1cc(F)cc(Cl)c1COc1cccc2c(-c3ncnn3C)cc(C)nc12 [Form A, (S)—N-(1-deutero-1-(3-chloro-5-fluoro-2-((2-methyl-4-(1-methyl-1H-1,2,4-triazol-5-yl)quinolin-8-yloxy)methyl)phenyl)ethyl)-2-(difluoromethoxy)acetamide monohydrate]
